Test system: A5-S3G (DNA, aptamer) TCGGATAAAACCGGGCGGCGTTACACTAGGCG
Experiment: biolayer interferometry
Conditions: 150 mM NaCl, 2 mM MgCl2; 50 mM Tris-HCl, pH 7.5; tested at 1000 nM in aptasensor

C=C1[C@@H](O)[C@@H]2O[C@]3(CC[C@H](/C=C/[C@@H](C)[C@@H]4CC(C)=C[C@@]5(O[C@H](C[C@@](C)(O)C(=O)O)CC[C@H]5O)O4)O3)CC[C@H]2O[C@@H]1[C@@H](O)C[C@H](C)[C@H]1O[C@@]2(CCCCO2)CC[C@H]1C
binding: no

Source: publication PMC11510897 (2024)
